# Results: article PMC3293629 (Nature Communications, 2012)
# Where two headings read alike, the source gives them in different places.
# Legend:
# [1] = test system: Flu1-specific clone HA1.7; assay: IFN-γ ELISpot, other Flu1-specific clones; format: cell-based, human; settings: Fig. 1c, peptide titration, compared with Flu1
# [2] = test system: CD4^+ T cells binding the HLA-DR1/HA305−320 tetramer; format: cell-based, human
# [3] = test system: TRB clonotypes of tetramer-sorted CD4^+ T cells; format: cell-based, human
# [4] = test system: HA1.7, F11 and HA-C6 TCRs; assay: SPR equilibrium binding of HA1.7, F11 and HA-C6 TCRs, combined; parameters: species or system human; settings: Arg at P10 or P11
# [5] = test system: CD4^+ HLA-DR1/HA305−320 tetramer-positive cells; format: cell-based, human
Sequence,"responsiveness to altered peptides, other clones (in words) [1]","tetramer-positive expansion, % of CD3^+ T cells ([2]; short-term T-cell line primed with peptide, HLA-DR1/HA305−320 tetramer)","Freq. of clonotype ([3]; TRBV 5–6, CDR3 […], TRBJ 1–2) [%]","Freq. of clonotype ([3]; TRBV 12–3/4, CDR3 […], TRBJ 1–5) [%]","clonotypic composition, repeat experiment versus first (in words) ([3]; same donor, Chi square 0.72, P=0.70, data not shown)",increase in TCR binding affinity [4] [fold],number of expanded CD4^+ HLA-DR1/HA305−320 tetramer-positive cells [5],"tetramer-positive expansion, % of CD3^+ T cells [2]","clonotypic composition, repeat experiment versus first (in words) [3]"
PKYVKQNTLKLAR [Flu3],striking increase in responsiveness,28.7 % of CD3^+ T cells,69.70,30.30,no significant difference,> 2,–,–,–
"PKYVKQNTLKLAT [Flu1, reference compound]",–,–,–,–,–,–,≥ 5×10^4 cells,19.4 % of CD3^+ T cells,no significant difference
